# In patent US9925263B2, “Liquid pharmaceutical formulations for injection comprising procaine and uses thereof” (EAGLE BIOLOGICS, INC., priority 2013, dated 2018):
# Counter-ions that a name gives are not always drawn.
# Experiments:
# REMICADE® [1] = assay: Viscosity of aqueous solutions of […]® with viscosity-lowering agents; assay type: physicochemical; conditions: for Viscosity: 25° C.
# Experimental: (§1) (unless otherwise indicated).
# An extrapolated zero-shear viscosity was determined from a plot of absolute viscosity versus shear rate.
# Following reconstitution, the viscosity of each solution was measured using the microfluidic viscometer as described in previous examples. The solutions were then back-loaded into 1 mL BD insulin syringes with 27, 29, or 31 gauge fixed needles. The force required to extrude the concentrated […]® solutions was then measured using an Instron at a rate of displacement equivalent to a fluid flow rate of 3 mL/min. The expelled solution was collected from the syringe and analyzed by size-exclusion chromatography.
# TYSABRI® = assay: Viscosity of aqueous solutions of TYSABRI® with viscosity-lowering agents; assay type: physicochemical; conditions: 25° C.
# Experimental: All viscosities of well-mixed aqueous mAb solutions were measured using either a mVROC microfluidic viscometer (RheoSense) or a DV2T cone and plate viscometer (Brookfield; “C & P”) after a 5 minute equilibration at 25° C. […] The mVROC viscometer was equipped with an “A” or “B” chip, each manufactured with a 50 micron channel. Typically, 0.10 mL of protein solution was back-loaded into a gastight microlab instrument syringe (Hamilton; 100 μL), affixed to the chip, and measured at multiple flow rates, approximately 20%, 40%, and 60% of the maximum pressure for each chip. […] An average absolute viscosity and standard deviation was then calculated from at least these three measurements. The C & P viscometer was equipped with a CPE40 or CPE52 spindle (cone angle of 0.8° and 3.0°, respectively) and 0.50 mL samples were measured at multiple shear rates between 2 and 400 s^−1. Specifically, samples were measured for 30 seconds each at 22.58, 24.38, 26.25, 28.13, 30, 31.88, 45, 67.5, 90, 112.5, 135, 157.5, 180, 202.5, 247, 270, 292.5, 315, 337.5, 360, 382, 400 s^−1, starting at a shear rate that gave at least 10% torque, and continuing until instrument torque reached 100%. An extrapolated zero-shear viscosity was then determined from a plot of dynamic viscosity versus shear rate for the samples measured on a DV2T cone and plate viscometer. The extrapolated zero-shear viscosities reported are the average and standard deviation of at least three measurements.
# (§2) Viscosities were measured using a RheoSense mVROC microfluidic viscometer equipped with an “A” or “B” chip.
# (§3) Subsequently, the aqueous drug product was purified, buffer exchanged, concentrated, dried, reconstituted, and analyzed as described in the same manner. Viscosities reported were measured on a RheoSense mVROC microfluidic viscometer.
# biosimilar AVASTIN® = assay: Viscosity of aqueous solutions of biosimilar AVASTIN® with viscosity-lowering agents; assay type: physicochemical
# Experimental: as §1
# The protein was formulated to contain either 0.25 M phosphate buffer or 0.25 M CSAL.
# Subsequently, the appropriate amount of viscosity-lowering agent was added to result in a final viscosity-lowering agent concentration of 0.15-0.35 M upon reconstitution.
# The viscosity-lowering agent(s) were added in an amount sufficient to give concentration upon reconstitution as specified below. In cases of combinations of agents, the concentration of each component is 0.15 M. The protein solutions were then freeze-dried.
# VECTIBIX® = assay: Viscosity of aqueous solutions of VECTIBIX® with viscosity-lowering agents; assay type: physicochemical; conditions: 0.25M agent, 25° C., pH 7.0
# Source text: as §1
# biosimilar ERBITUX® = assay: Viscosity of aqueous solutions of biosimilar ERBITUX® with viscosity-lowering agents; conditions: 25° C.; for Fold Reduction: vs phosphate buffer
# Experimental: All viscosities of well-mixed aqueous mAb solutions were measured using either a mVROC microfluidic viscometer (RheoSense) or a DV2T cone and plate viscometer (Brookfield; “C & P”) after a 5 minute equilibration at 25° C. (unless otherwise indicated). The mVROC viscometer was equipped with an “A” or “B” chip, each manufactured with a 50 micron channel. Typically, 0.10 mL of protein solution was back-loaded into a gastight microlab instrument syringe (Hamilton; 100 μL), affixed to the chip, and measured at multiple flow rates, approximately 20%, 40%, and 60% of the maximum pressure for each chip. […] An average absolute viscosity and standard deviation was then calculated from at least these three measurements. The C & P viscometer was equipped with a CPE40 or CPE52 spindle (cone angle of 0.8° and 3.0°, respectively) and 0.50 mL samples were measured at multiple shear rates between 2 and 400 s^−1. […] An extrapolated zero-shear viscosity was then determined from a plot of dynamic viscosity versus shear rate for the samples measured on a DV2T cone and plate viscometer. The extrapolated zero-shear viscosities reported are the average and standard deviation of at least three measurements.
# First, Polysorbate 80 was removed using DETERGENT-OUT® TWEEN® Medi Columns (G-Biosciences). […] The collected protein solution was freeze-dried. The dried protein cakes, containing protein and buffer salts or agent, were reconstituted to a final volume of 0.15-1.3 mL. […] Reported protein concentrations represent the range of all protein samples included in each Table or Figure. Specifically, reported values are the median plus or minus half the range. Extrapolated zero-shear using an experimentally determined extinction coefficient of 1.4 L/g·cm and viscosities reported were measured on a DV2T cone and plate viscometer.
# The final concentration of CSAL upon reconstitution in an aqueous CSAL solution ranged from 0.25 M to 0.50 M.
# Specifically, 20 mM solutions of the viscosity-lowering agents of interest were used for buffer exchange, and the lyophilized cakes were reconstituted to 0.25 M of each viscosity-lowering agent. […] The sample was first aliquoted. […] The dried protein cakes, containing protein and viscosity-lowering agent (and a negligible amount of buffer salts) were reconstituted to a final volume of approximately 0.10 mL and viscosity-lowering agent concentration as previously described.
# First, Polysorbate was removed from the commercially obtained mAb solutions.
# Specifically, 20 mM solutions of the salts of interest were used for buffer exchange, and the lyophilized cakes were reconstituted to contain 0.25 M of each agent. Viscosities were measured using either a RheoSense mVROC microfluidic viscometer equipped with an “A” or “B” chip or a DV2T cone and plate viscometer.
# as §3
# HERCEPTIN® = assay: Viscosity of aqueous solutions of HERCEPTIN® with viscosity-lowering agents; assay type: physicochemical; conditions: 25° C.
# Experimental: All viscosities of well-mixed aqueous mAb solutions were measured using either a mVROC microfluidic viscometer (RheoSense) or a DV2T cone and plate viscometer (Brookfield; “C & P”) after a 5 minute equilibration at 25° C. (unless otherwise indicated). The mVROC viscometer was equipped with an “A” or “B” chip, each manufactured with a 50 micron channel. Typically, 0.10 mL of protein solution was back-loaded into a gastight microlab instrument syringe (Hamilton; 100 μL), affixed to the chip, and measured at multiple flow rates, approximately 20%, 40%, and 60% of the maximum pressure for each chip. […] An average absolute viscosity and standard deviation was then calculated from at least these three measurements. The C & P viscometer was equipped with a CPE40 or CPE52 spindle (cone angle of 0.8° and 3.0°, respectively) and 0.50 mL samples were measured at multiple shear rates between 2 and 400 s^−1. Specifically, samples were measured for 30 seconds each at 22.58, 24.38, 26.25, 28.13, 30, 31.88, 45, 67.5, 90, 112.5, 135, 157.5, 180, 202.5, 247, 270, 292.5, 315, 337.5, 360, 382, 400 s^−1, starting at a shear rate that gave at least 10% torque, and continuing until instrument torque reached 100%. An extrapolated zero-shear viscosity was then determined from a plot of dynamic viscosity versus shear rate for the samples measured on a DV2T cone and plate viscometer. The extrapolated zero-shear viscosities reported are the average and standard deviation of at least three measurements.
# as §2
# Viscosities reported were measured on a RheoSense mVROC microfluidic viscometer.
# biosimilar RITUXAN® = assay: Viscosity of aqueous solutions of biosimilar RITUXAN® with viscosity-lowering agents; conditions: 25° C.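 Further: absolute viscosity of aqueous antibody solutions determined by microfluidic viscometry (mVROC chip, 50 micron channel) at several flow rates after 5 min equilibration, mean of at least three readings.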
# REMICADE® [2] = assay: Monomer content of […]® solutions by size exclusion chromatography; assay type: physicochemical; conditions: lyophilized powder (cake containing CSAA) stored at 4° C.; reconstituted after 75 days
# antigen = assay: Antigen binding, […]®-specific ELISA assay; conditions: 227 mg/mL, pH 7, 0.25M CSAA, storage at 4° C.
# Experimental: Biophysical properties of solutions of […]® formulated with 0.25 M CSAA were assessed over 90 days. Samples of […]® formulated with 0.25 M CSAA were prepared as described in Example 1 above. […] (Table 20). Additionally, antigen binding of this processed […]® protein was measured with a […]®-specific ELISA assay and no decrease in binding was seen between days 0 and […] (Table 20).
# [3] = 166 ± 4 mg/mL REMICADE, 0.25M agent, pH 7.0
# [4] = 222 ± 6 mg/mL REMICADE, 0.25M agent, pH 7.0
# [5] = 200 ± 5 mg/mL mAb, pH 7.0, 25° C., [Salt] 0.25 M of anion, C & P viscometer
# [6] = 222 ± 5 mg/mL mAb, pH 7.0, 0.25M agent
# [7] = 202 ± 2 mg/mL RITUXAN, 0.25M agent, pH 7.0
compound,measurement,setting,value
"Cl.N=C(N)NCCC[C@H](N)C(=O)O [Arginine•HCl, arginine HCl, reference compound]",Viscosity,REMICADE® [1]; [3],110 ± 1 cP
same,Viscosity,REMICADE® [1]; [4],486 ± 34 cP
same,Viscosity,"TYSABRI®; 230 ± 2 mg/mL TYSABRI, 0.25M agent, pH 7.0",37.0 ± 0.1 cP
same,Viscosity,"TYSABRI®; 237 ± 4 mg/mL TYSABRI, 0.25M agent, pH 7.0",52.3 ± 4.5 cP
same,Viscosity,"TYSABRI®; 276 ± 8 mg/mL TYSABRI, 0.25M agent, pH 7.0",97.2 ± 5.7 cP
same,Viscosity,biosimilar AVASTIN®; [5],83.2 ± 2.8 cP
same,Viscosity,"biosimilar AVASTIN®; 200 ± 5 mg/mL mAb, pH 7.0, 25° C., [Salt] 0.3 M of anion, C & P viscometer",71.8 ± 2.2 cP
same,Viscosity,VECTIBIX®; 233 ± 4 mg/mL VECTIBIX,24.7 ± 1.3 cP
same,Viscosity,VECTIBIX®; 252 ± 3 mg/mL VECTIBIX,36.2 ± 1.0 cP
same,Viscosity,biosimilar ERBITUX®; [6],45.3 ± 0.5 cP
same,Fold Reduction,biosimilar ERBITUX®; [6],24.9 fold
same,Viscosity,"HERCEPTIN®; 216 ± 0 mg/mL HERCEPTIN, 0.25M salt, pH 7.0",44.8 ± 1.1 cP
same,Viscosity,"HERCEPTIN®; 254 ± 3 mg/mL HERCEPTIN, 0.25M salt, pH 7.0",116 ± 24 cP
same,Viscosity,"HERCEPTIN®; 270 ± 6 mg/mL HERCEPTIN, 0.25M salt, pH 7.0",179 ± 17 cP
same,Viscosity,"biosimilar RITUXAN®; 220 mg/mL RITUXAN (footnote *), 0.45M agent, pH 7.0",86.8 ± 1.8
same,Viscosity,"biosimilar RITUXAN®; 202 ± 2 mg/mL RITUXAN, 0.45M agent, pH 7.0",46.9 ± 0.8
O=C([O-])CCCC[C@@H]1SC[C@@H]2NC(=O)N[C@@H]21.[Na+] [Biotin-Na],Viscosity,"TYSABRI®; 233 mg/mL TYSABRI, […] agent",75.8 ± 0.4 cP
same,Viscosity,"biosimilar AVASTIN®; 189 mg/mL mAb, agent […], 25° C.",45.1 ± 0.9 cP
same,Viscosity,"HERCEPTIN®; 230 mg/mL HERCEPTIN, […] agent",69.9 ± 2.3 cP
"CC1(C)C2CCC1(CS(=O)(=O)O)C(=O)C2 (centres unmarked) [CSA sodium salt, Camphorsulfonic acid]",Viscosity,biosimilar AVASTIN®; [5],55.7 ± 0.2 cP
same,Viscosity,biosimilar ERBITUX®; [6],393 ± 14 cP
same,Fold Reduction,biosimilar ERBITUX®; [6],2.9 fold
same,Viscosity,biosimilar RITUXAN®; [7],76.1 ± 1.3
"CO/N=C(\C(=O)N[C@@H]1C(=O)N2C(C(=O)O)=C(CSc3nc(=O)c(=O)[nH]n3C)CS[C@H]12)c1csc(N)n1 [Ceftriaxone sodium salt, reference compound]",Viscosity,"biosimilar AVASTIN®; 198 mg/mL mAb, agent […], 25° C.",301 ± 5 cP
same,Viscosity,"biosimilar ERBITUX®; 190 mg/mL mAb, […] agent",120 ± 2 cP
same,Viscosity,"biosimilar RITUXAN®; 222 mg/mL mAb, […] agent",198 ± 17 cP
"CCN(CC)CCCC(C)Nc1ccnc2cc(Cl)ccc12 (centres unmarked) [Chloroquine Phosphate, reference compound]",Viscosity,"biosimilar AVASTIN®; 200 mg/mL mAb, agent 0.10M, 25° C.",27.9 ± 0.6 cP
same,Viscosity,"biosimilar AVASTIN®; 219 mg/mL mAb, agent 0.10M, 25° C.",58.6 ± 1.6 cP
same,Viscosity,"biosimilar AVASTIN®; 228 mg/mL mAb, agent 0.10M, 25° C.",71.8 ± 0.9 cP
same,Viscosity,"biosimilar ERBITUX®; 179 mg/mL mAb, 0.10M agent",37.4 ± 0.9 cP
same,Viscosity,"biosimilar ERBITUX®; 199 mg/mL mAb, 0.10M agent",54.8 ± 0.2 cP
same,Viscosity,"biosimilar RITUXAN®; 210 mg/mL mAb, 0.10M agent",67.1 ± 1.1 cP
"CN/C(=N/CCSCc1nc[nH]c1C)NC#N [Cimetidine HCl, reference compound]",Viscosity,"biosimilar AVASTIN®; 203 mg/mL mAb, agent […], 25° C.",53.8 ± 2.4 cP
same,Viscosity,"biosimilar ERBITUX®; 183 mg/mL mAb, […] agent",19.7 ± 0.2 cP
same,Viscosity,"biosimilar RITUXAN®; 215 mg/mL mAb, […] agent",49.5 ± 1.2 cP
"CN1C2CCCC1CC(NC(=O)c1nn(C)c3ccccc13)C2 (centres unmarked) [Granisetron HCl, reference compound]",Viscosity,"biosimilar AVASTIN®; 168 mg/mL mAb, agent […], 25° C.",37.9 ± 0.6 cP
same,Viscosity,"biosimilar AVASTIN®; 237 mg/mL mAb, agent […], 25° C.",308 ± 34 cP
same,Viscosity,"biosimilar ERBITUX®; 180 mg/mL mAb, […] agent",23.0 ± 0.2 cP
same,Viscosity,"biosimilar RITUXAN®; 204 mg/mL mAb, […] agent",51.2 ± 0.8 cP
"CC[C@@H](C(N)=O)N1CCCC1=O [Levetiracetam, reference compound]",Viscosity,"biosimilar ERBITUX®; 176 mg/mL mAb, […] agent",103 ± 3 cP
same,Viscosity,"biosimilar ERBITUX®; 199 mg/mL mAb, […] agent",178 ± 2 cP
same,Viscosity,"biosimilar RITUXAN®; 205 mg/mL mAb, […] agent",130 ± 2 cP
"CC1(C)S[C@@H]2[C@H](NC(=O)Cc3ccccc3)C(=O)N2[C@H]1C(=O)[O-].[Na+] [Penicillin G sodium salt, reference compound]",Viscosity,"biosimilar ERBITUX®; 178 mg/mL mAb, […] agent",82.1 ± 3.6 cP
same,Viscosity,"biosimilar RITUXAN®; 207 mg/mL mAb, […] agent",114 ± 7 cP
"CCN(CC)CCOC(=O)c1ccc(N)cc1 [Procaine HCl, reference compound]",Viscosity,"REMICADE® [1]; 174 mg/mL REMICADE, […] agent",23.4 ± 0.2 cP
same,Viscosity,"TYSABRI®; 228 mg/mL TYSABRI, […] agent",45.1 ± 1.5 cP
same,Viscosity,"biosimilar AVASTIN®; 188 mg/mL mAb, agent […], 25° C.",40.8 ± 0.9 cP
same,Viscosity,"biosimilar AVASTIN®; 222 mg/mL mAb, agent […], 25° C.",65.8 ± 0.8 cP
same,Viscosity,"biosimilar ERBITUX®; 230 mg/mL mAb, […] agent",35.9 ± 0.3 cP
same,Viscosity,"HERCEPTIN®; 222 mg/mL HERCEPTIN, […] agent",41.8 ± 0.6 cP
same,Viscosity,"biosimilar RITUXAN®; 195 mg/mL mAb, […] agent",33.4 ± 1.2 cP
same,Viscosity,"biosimilar RITUXAN®; 222 mg/mL mAb, […] agent",46.2 ± 1.1 cP
"CN1[C@@H]2C[C@@H](OC(=O)[C@H](CO)c3ccccc3)C[C@H]1[C@@H]1O[C@@H]12 [Scopolamine HBr, reference compound]",Viscosity,"biosimilar AVASTIN®; 210 mg/mL mAb, agent […], 25° C.",35.3 ± 1.1 cP
same,Viscosity,"biosimilar AVASTIN®; 223 mg/mL mAb, agent […], 25° C.",64.0 ± 0.8 cP
same,Viscosity,"biosimilar AVASTIN®; 238 mg/mL mAb, agent […], 25° C.",87.8 ± 1.5 cP
same,Viscosity,"biosimilar ERBITUX®; 173 mg/mL mAb, […] agent",23.4 ± 0.6 cP
same,Viscosity,"biosimilar RITUXAN®; 197 mg/mL mAb, […] agent",42.3 ± 1.0 cP
CSA-Na-Ornidazole,Viscosity,"HERCEPTIN®; 232 mg/mL HERCEPTIN, […] agent",60.1 ± 0.6 cP
same,Viscosity,"biosimilar RITUXAN®; 188 mg/mL mAb, […] agent",40.7 ± 0.5 cP
same,Viscosity,"biosimilar RITUXAN®; 242 mg/mL mAb, […] agent",63.0 ± 3.5 cP
Colistin sulfate salt [reference compound],Viscosity,"biosimilar AVASTIN®; 240 mg/mL mAb, agent […], 25° C.",261 ± 58 cP
same,Viscosity,"biosimilar ERBITUX®; 203 mg/mL mAb, […] agent",138 ± 4 cP
same,Viscosity,"biosimilar RITUXAN®; 230 mg/mL mAb, […] agent",228 ± 19 cP
Ethane disulfonate-diTris-2Na,Viscosity,"biosimilar AVASTIN®; 219 mg/mL mAb, […] agent, pH 7.0, 25° C., microfluidic",>150 cP
same,Viscosity,"biosimilar RITUXAN®; 191 mg/mL mAb, […] agent",80.3 ± 16.0 cP
HEPES-Tris,Viscosity,"biosimilar AVASTIN®; 214 mg/mL mAb, agent […], 25° C.",90.5 ± 1.8 cP
same,Viscosity,"biosimilar RITUXAN®; 191 mg/mL mAb, […] agent",50.0 ± 3.8 cP
"REMICADE ®: infliximab, mAb against TNF-α; here concentrated solution formulated with 0.25 M CSAA",% Monomer (SEC),REMICADE® [2],98.9 ± 0.1%
same,% binding (ELISA),antigen; day 0,105 ± 14%
same,% binding (ELISA),antigen; day 30,98 ± 12%
same,% binding (ELISA),antigen; day 100,101 ± 5%
sulfosalicylic acid di-arginine [Sulfosalicylic acid diarginine],Viscosity reduction,"REMICADE® [1]; 0.25M agent vs PB, Table 17",about 29 fold
same,Viscosity,REMICADE® [1]; [3],27.1 ± 0.3 cP
same,Viscosity,REMICADE® [1]; [4],55.9 ± 1.8 cP
same,Viscosity,"biosimilar AVASTIN®; 228 ± 5 mg/mL mAb, agent […], 25° C., pH 7.0",81.6 ± 1.7 cP
same,Viscosity,"biosimilar RITUXAN®; 220 mg/mL RITUXAN (footnote *), 0.25M agent, pH 7.0",68.3 ± 0.8
same,Viscosity,biosimilar RITUXAN®; [7],44.1 ± 0.1
